From US20020147196A1, “Composition and method for treating neuropathic pain” (priority 2001, published 2002)

Assays:
Assay type in all cases: in vivo, rat
[1] = tested on: CCI-induced decrease in mechanical paw withdrawal threshold; test: chronic constriction injury (CCI) model of neuropathic pain: mechanical paw withdrawal threshold measured with an algesymeter; conditions: for known minimum effective dose in the CCI model: b.i.d. p.o., shown previously to have efficacy in the CCI model
Method: (§1) All experiments were performed using the chronic constriction injury (CCI) model of neuropathic pain in the rat. Under isoflurane anaesthesia, the common left sciatic nerve of male random hooded rats (180-220 g) was exposed at mid thigh level. Four ligatures of chromic gut (4.0) were tied loosely around the nerve with a 1 mm spacing between each. The wound was then closed and secured with suture clips. The surgical procedure was identical for the sham operated animals except the sciatic nerve was not ligated. The animals were allowed a period of 10 days to recover from the surgery before any behavioural testing began. The effect of the test compound on CCI-induced decrease in mechanical paw withdrawal threshold was measured using an algesymeter (Randall & Selitto, 1957). The presence of mechanical allodynia was assessed using Von Frey hair mono filaments (range: 4.19-84.96 g). The rats were lightly restrained and placed upon a metal grid floor, from below which the monofilaments were applied to the plantar surface of the hindpaws. The lowest monofilament to produce a withdrawal was the response recorded.
(§2) All data were expressed as mean±s.e.mean. Statistical analysis was carried out to compare the difference between the drug treated group and vehicle treated groups using unpaired Student's t-test (P<0.05 considered significant).

[2] = tested on: CCI-induced tactile allodynia; test: CCI model of neuropathic pain: mechanical (tactile) allodynia assessed with Von Frey hair monofilaments
Method: as §1, §2

[3] = observation of adverse side effects during chronic dosing in the CCI experiments
Method: Lamotrigine (30 mgkg^−1 b.i.d. p.o.) was dosed chronically for a period of 12 days. The dose chosen was determined from previous “in-house” data and doses believed to be efficacious in the clinical treatment of neuropathic pain.
Bupropion (10 mgkg^−1 b.i.d. p.o.) was dosed chronically for a period of 8 days. The dose chosen reflects both previous “in-house” data and that which is believed to be efficacious in the clinical treatment of neuropathic pain.

[4] = bupropion 10 mgkg^−1 b.i.d. p.o., days 47-54

Structure (SMILES) | known minimum effective dose in the CCI model [1] | effect on paw withdrawal thresholds in sham-operated rats ([1]; bupropion 10 mgkg^−1, first day of dosing only, 1 hour post dose, sham-operated rats) | reversal of the fall in paw withdrawal threshold back towards sham-operated levels after a single dose ([1]; bupropion 10 mgkg^−1, single dose) | reversal of paw withdrawal threshold during the chronic dosing period [1, 4] | time the reversal of paw withdrawal threshold was maintained following cessation of treatment [1, 4] | reversal of tactile allodynia following cessation of treatment ([2]; bupropion 10 mgkg^−1 b.i.d. p.o., after cessation) | effect on tactile allodynia (Von Frey hair withdrawal threshold) during chronic dosing [2, 4] | day of maximal reversal of tactile allodynia ([2]; bupropion 10 mgkg^−1 b.i.d. p.o., days 47-54, last day of dosing) | adverse side effects as a result of the surgery or chronic dosing schedule ([3]; bupropion 10 mgkg^−1 b.i.d. p.o. for 8 days) | reversal of the CCI-induced decrease in paw-withdrawal threshold to that of sham-operated animals ([1]; lamotrigine 30 mgkg^−1 twice daily p.o., days 13-24 post-operative) | post-operative day until which the analgesic effect was maintained following cessation of treatment ([1]; lamotrigine 30 mgkg^−1 twice daily p.o., dosing ended day 24) | post-operative day by which the decrease in paw-withdrawal threshold was fully reversed ([1]; lamotrigine 30 mgkg^−1 twice daily p.o., dosing from day 13 post-operative) | effect on CCI-induced tactile allodynia (Von Frey hair withdrawal threshold) during chronic dosing ([2]; lamotrigine 30 mgkg^−1 b.i.d. p.o.) | effect on tactile allodynia following cessation of treatment, compared to vehicle treated group ([2]; lamotrigine 30 mgkg^−1 b.i.d. p.o., after cessation) | adverse side effects as a result of the surgery or chronic dosing schedule ([3]; lamotrigine 30 mgkg^−1 b.i.d. p.o. for 12 days)
CC(NC(C)(C)C)C(=O)c1cccc(Cl)c1 (stereo not shown) [bupropion] | 10 mgkg^−1 | small effect | immediate reversal | maintained throughout the chronic dosing period | 4 days | not maintained | some effect | 54 days | No adverse side effects were observed | – | – | – | – | – | –
Nc1nnc(-c2cccc(Cl)c2Cl)c(N)n1 [lamotrigine] | 10 mgkg^−1 | – | – | – | – | – | – | – | – | fully reversed | 37 day post-operative | ≤ 16 days | transient reversal | small reversal | No adverse side effects were observed
